Reference: ChEMBL document CHEMBL1201862, “PubChem BioAssay data set” (2004)
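Values below derive from 48-hour exposures of cells grown in 96-well plates, with endpoints linearly interpolated between the two concentrations bracketing the appropriate inhibition level. Abbreviation: GI50, concentration required for 50% inhibition of growth.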 Calls of active or inactive are those of the source. Rule as the data show it: active = GI50 up to about 1.1 µM and inactive = higher.

Key:
Assay in all cases: inhibition of tumour cell growth, NCI panel, 48 h
786-0 = test system: 786-0
A498 = test system: A498
A549 = test system: A549
ACHN = test system: ACHN
BT-549 = test system: BT-549
CAKI-1 = test system: CAKI-1
CCRF-CEM = test system: CCRF-CEM
COLO 205 = test system: COLO 205
DLD-1 = test system: DLD-1
DMS-114 = test system: DMS-114
DMS-273 = test system: DMS-273
DU-145 = test system: DU-145
EKVX = test system: EKVX
HCC 2998 = test system: HCC 2998
HCT-116 = test system: HCT-116
HCT-15 = test system: HCT-15
HL-60 = test system: HL-60
HOP-18 = test system: HOP-18
HOP-62 = test system: HOP-62
HOP-92 = test system: HOP-92
HT-29 = test system: HT-29
Hs-578T = test system: Hs-578T
IGROV-1 = test system: IGROV-1
K562 = test system: K562
KM-20L2 = test system: KM-20L2
KM12 = test system: KM12
LOX IMVI = test system: LOX IMVI
LXFL 529 = test system: LXFL 529
M14 = test system: M14
M19-MEL = test system: M19-MEL
MCF7 = test system: MCF7
MDA-MB-231 = test system: MDA-MB-231
MDA-N = test system: MDA-N
MOLT-4 = test system: MOLT-4
Malme-3M = test system: Malme-3M
NCI-H226 = test system: NCI-H226
NCI-H23 = test system: NCI-H23
NCI-H460 = test system: NCI-H460
NCI-H522 = test system: NCI-H522
NCI/ADR-RES = test system: NCI/ADR-RES
OVCAR-3 = test system: OVCAR-3
OVCAR-4 = test system: OVCAR-4
OVCAR-5 = test system: OVCAR-5
OVCAR-8 = test system: OVCAR-8
PC-3 = test system: PC-3
RPMI-8226 = test system: RPMI-8226
RXF 393 = test system: RXF 393
SF-268 = test system: SF-268
SF-295 = test system: SF-295
SF-539 = test system: SF-539
SK-MEL-2 = test system: SK-MEL-2
SK-MEL-5 = test system: SK-MEL-5
SK-OV-3 = test system: SK-OV-3
SN12C = test system: SN12C
SNB-19 = test system: SNB-19
SNB-75 = test system: SNB-75
SNB-78 = test system: SNB-78
SR = test system: SR
SW-620 = test system: SW-620
T47D = test system: T47D
TK-10 = test system: TK-10
U-251 = test system: U-251
UACC-257 = test system: UACC-257
UACC-62 = test system: UACC-62
UO-31 = test system: UO-31
XF498 = test system: XF498
RXF 631 = test system: RXF 631
SK-MEL-28 = test system: SK-MEL-28

Measured: GI50

Nc1nc(N)c(CCCCc2ccc([N+](=O)[O-])cc2)c(N)n1
inactive: 786-0 8.67 µM | A498 > 100 µM | A549 7.29 µM | ACHN 27.9 µM | BT-549 > 100 µM | CAKI-1 > 96.6 µM | CCRF-CEM > 20.3 µM | COLO 205 > 94 µM | DLD-1 27 µM | DMS-114 20.8 µM | DMS-273 11.6 µM | DU-145 76 µM | EKVX > 100 µM | HCC 2998 38.1 µM | HCT-116 3.93 µM | HL-60 2.84 µM | HOP-18 > 100 µM | HOP-62 > 100 µM | HOP-92 99.5 µM | HT-29 7.67 µM | Hs-578T > 100 µM | IGROV-1 23.6 µM | K562 3.86 µM | KM-20L2 36.1 µM | KM12 36.3 µM | LOX IMVI 6.62 µM | LXFL 529 47.8 µM | M14 31 µM | M19-MEL > 100 µM | MCF7 > 100 µM | MDA-MB-231 > 100 µM | MDA-N > 100 µM | MOLT-4 8.22 µM | Malme-3M 41.9 µM | NCI-H226 > 100 µM | NCI-H23 10.6 µM | NCI-H460 5.68 µM | NCI-H522 > 83.6 µM | NCI/ADR-RES > 100 µM | OVCAR-3 > 100 µM | OVCAR-4 > 100 µM | OVCAR-5 78.7 µM | OVCAR-8 22.3 µM | PC-3 7.71 µM | RPMI-8226 > 25.9 µM | RXF 393 24.9 µM | SF-268 > 50.4 µM | SF-295 17.1 µM | SF-539 > 85.3 µM | SK-MEL-2 > 100 µM | SK-MEL-5 16.7 µM | SK-OV-3 > 100 µM | SN12C > 79.4 µM | SNB-19 > 100 µM | SNB-75 > 100 µM | SNB-78 > 100 µM | SR 10.6 µM | SW-620 > 30.5 µM | T47D > 100 µM | TK-10 > 100 µM | U-251 10.6 µM | UACC-257 > 96.2 µM | UACC-62 8.67 µM | UO-31 > 100 µM | XF498 > 100 µM
6.65 µM: HCT-15

COc1ccc(C2CC(=O)c3c(O)cc(O)cc3O2)cc1O (stereo unspecified)
inactive: 786-0 > 100 µM | A498 > 100 µM | A549 > 100 µM | ACHN > 100 µM | CAKI-1 > 100 µM | CCRF-CEM > 100 µM | COLO 205 > 100 µM | DLD-1 > 100 µM | DMS-114 > 100 µM | DMS-273 > 100 µM | EKVX > 100 µM | HCC 2998 > 100 µM | HCT-116 > 100 µM | HL-60 > 100 µM | HOP-62 > 100 µM | HT-29 > 100 µM | IGROV-1 > 100 µM | K562 28.8 µM | KM-20L2 > 100 µM | KM12 > 100 µM | LOX IMVI > 100 µM | LXFL 529 > 100 µM | M14 > 100 µM | M19-MEL > 100 µM | MOLT-4 > 100 µM | Malme-3M > 100 µM | NCI-H226 > 100 µM | NCI-H23 > 100 µM | NCI-H460 > 100 µM | NCI-H522 > 100 µM | OVCAR-3 > 100 µM | OVCAR-4 65.2 µM | OVCAR-5 > 100 µM | OVCAR-8 > 100 µM | RPMI-8226 78 µM | RXF 631 > 100 µM | SF-268 > 100 µM | SF-295 > 100 µM | SF-539 > 100 µM | SK-MEL-28 > 100 µM | SK-MEL-2 > 100 µM | SK-MEL-5 > 100 µM | SK-OV-3 > 100 µM | SN12C > 100 µM | SNB-19 > 100 µM | SNB-75 53.8 µM | SNB-78 > 100 µM | SW-620 > 100 µM | TK-10 > 100 µM | U-251 > 100 µM | UACC-257 > 100 µM | UACC-62 > 100 µM | UO-31 58.7 µM | XF498 > 100 µM
> 100 µM: HCT-15
